“Also recorded” adds a separate entry of the source. Where two headings read alike, the source gives them in different places.
Assay: Animal study: plasma concentration and AUC of cinnamic acid derivatives after intragastric BGP with or without each herbal extract
Assay type: in vivo, Wistar/ST rats
Details: rats; for AUC: intragastric, 0–24 h, mean ± SD, n = 8; for plasma concentration, BGP alone versus BGP and turmeric (in words): 24 h post-ingestion
Procedure: Wistar/ST rats (male, 7 weeks old) were purchased from Japan SLC (Shizuoka, Japan). […] The rats were quarantined and acclimatized under the above conditions for 1 week and divided into six groups (eight rats/group) according to their average body weight (240–260 g). Each test sample listed in Table 1 was dissolved in 10% propylene glycol (1 mL per rat) and administered intragastrically to the rats after an overnight fasting period with free access to water. […] The collected samples were centrifuged at 1500 g for 10 min at 4°C to separate the plasma and preserved at −80°C until further sample preparation.
Briefly, 50 μL of plasma was treated with a sulfatase/β‐glucuronidase solution (sulfatase 15 units/sample) in 100 mM sodium acetate and 5 mM ascorbate at 37°C for 1 h. Following the incubation, 850 μL of methanol was added to the samples to stop the deconjugation reaction, after which centrifugation was performed at 2000 g for 10 min at 23 ± 2°C. The supernatant was evaporated under nitrogen gas and then reconstituted in a fixed volume of methanol. The samples were filtered through a 0.22 μm PTFE membrane and then analyzed by LC–MS/MS.
Briefly, 5 μL of the sample was injected into a reversed‐phase column (Acquity UPLC BEH C18, 2.1 × 100 mm, ID. 1.7 μm; Waters, Milford, MA, USA) held at 30°C. The elution was performed using solvent A (0.1% formic acid) and solvent B (acetonitrile) at a flow rate of 0.3 mL/min. The gradient profiles were as follows: 5% B (0–2 min), 5–95% B (2–22 min), 95% B (22–25 min), and 5% B (25–30 min). Tandem mass spectrometry (MS/MS) was conducted using an ion trap mass spectrometer with a heated electrospray ion source (HESI) in both positive and negative ionization modes (scan range m/z 70–1000). […] External standard curves for cinnamic acid derivatives were generated using eight concentrations of authentic standard solutions (1, 5, 10, 50, 100, 250, 500, and 1000 ng/mL).
Quantification of cinnamic acid derivatives in the plasma was performed using the Trace Finder software version 4.1 (Thermo Scientific). The plasma concentration versus time data for the analytes obtained from each human and rat were entered into a Microsoft Excel spreadsheet. The area under the plasma concentration–time curve (AUC) was calculated using the linear trapezoidal rule, extending to the last sampling point.

[1] = BGP co-administered with gotu kola extract
[2] = BGP co-administered with turmeric extract

| AUC (male, Wistar/ST, rat, plasma, po, BGP 75 mg/kg co-administered with gotu kola extract 250 mg/kg, read-out: AUC) | AUC (male, Wistar/ST, rat, plasma, po, BGP 75 mg/kg co-administered with turmeric extract 250 mg/kg, read-out: AUC) | fold increase of AUC versus BGP administered alone [1] | Compound | plasma concentration, BGP alone versus BGP and turmeric (in words) | change of plasma concentration versus BGP alone (in words) (BGP + turmeric extract, at 30 min and 3 h) | change of AUC versus BGP alone (in words) [1] | fold increase of AUC versus BGP administered alone [2] | AUC (BGP 75 mg/kg administered alone) | AUC (BGP 75 mg/kg co-administered with turmeric extract 250 mg/kg) | peaks of the plasma concentration–time curve (BGP + turmeric extract) | fold increase of plasma concentration versus BGP alone (BGP + turmeric extract, 30 min after administration) | fold increase of plasma concentration versus BGP alone (BGP + turmeric extract, 6 h after administration) | change of AUC versus BGP alone (in words) (BGP co-administered with coffee fruit extract) | change of AUC versus BGP alone (in words) (BGP co-administered with ginkgo leaf extract) | change of AUC versus BGP alone (in words) (BGP co-administered with soybean extract) |
| --- | --- | --- | --- | --- | --- | --- | --- | --- | --- | --- | --- | --- | --- | --- | --- |
| 629 ± 167 ng·h/mL | 627 ± 148 ng·h/mL | 1.3 fold | CC(C)=CCc1cc(/C=C/C(=O)O)ccc1O [drupanin] | did not differ | significant increases or increasing trends | tended to increase | 1.3 fold |  |  |  |  |  |  |  |  |
|  |  |  | CC(C)=CCc1cc(/C=C/C(=O)O)cc(CC=C(C)C)c1O [artepillin C] | did not differ |  | did not significantly alter; also recorded: not changed | 1.4 fold | 1018.0 ± 184.5 ng·h/mL | 1377.2 ± 320.2 ng·h/mL | two distinct peaks at 30 min and 6 h | 1.7 fold | 1.5 fold | did not significantly alter | did not significantly alter | did not significantly alter |

— publication PMC11266932, “Enhanced absorption of prenylated cinnamic acid derivatives from Brazilian green propolis by turmeric in humans and rats” (Food Science & Nutrition, 2024)
